How the values were obtained:
[1] = system: HuTu 80 (human duodenal adenocarcinoma); experiment: MTT cytotoxicity, HuTu 80; format: cell-based; details: for IC50: Homo sapiens, HuTu80, MTT, mean ± SD, triplicate; for SI HuTu 80: IC50 normal cells (WI38) / IC50 cancer cells, ns = no selectivity
[2] = system: M-HeLa (human cervix epitheloid carcinoma); experiment: MTT cytotoxicity, M-HeLa; format: cell-based; details: for IC50: Homo sapiens, M-HeLa, MTT, mean ± SD, triplicate; for SI M-HeLa: IC50 normal cells (WI38) / IC50 cancer cells, ns = no selectivity
[3] = system: MCF-7 (human breast adenocarcinoma); experiment: MTT cytotoxicity, MCF-7; format: cell-based; details: for IC50: Homo sapiens, MCF7, MTT, mean ± SD, triplicate; for SI MCF-7: IC50 normal cells (WI38) / IC50 cancer cells, ns = no selectivity
[4] = system: A549 (human lung carcinoma); experiment: MTT cytotoxicity, A549; format: cell-based; details: for IC50: Homo sapiens, A549, MTT, mean ± SD, triplicate; for SI A549: IC50 normal cells (WI38) / IC50 cancer cells, ns = no selectivity
[5] = system: T98G glioblastoma cell line; experiment: MTT cytotoxicity, T98G; format: cell-based, human; details: for IC50: Homo sapiens, T98G, MTT, mean ± SD, triplicate; for SI T98G: IC50 normal cells (WI38) / IC50 cancer cells, ns = no selectivity
[6] = system: WI38 (diploid human embryo lung); experiment: MTT cytotoxicity, normal cells WI38; format: cell-based; details: Homo sapiens, WI-38, MTT; mean ± SD, triplicate; read-out: WI38 IC50 (normal cell line)
HuTu-80 cells [7] = experiment: Induction of apoptosis, annexin V/propidium iodide flow cytometry; format: cell-based, human; details: IC50/2, 48-h incubation
Protocol: Apoptosis is one of the most significant mechanisms used for screening new anti-cancer agents. The apoptosis-inducing effect was carried out on lead compounds 3a, b, k, j and 4c showing high selectivity against HuTu-80 cells. The studies were carried out by flow cytometry at concentrations IC50/2 and IC50 (Figure 4). […] The percentage of apoptotic cells in early and late phases was slightly changed with increase compound concentration up to IC50.
HuTu 80 cells at 1 × 10^6 cells/well in a final volume of 2 mL were seeded into six-well plates. After 48 h of incubation, various concentrations of compounds 3a,b and 3k were added to wells.
The cells were harvested at 2000 rpm for 5 min and, then, washed twice with ice-cold PBS, followed by resuspension in binding buffer. Next, the samples were incubated with 5 μL of annexin V-Alexa Fluor 647 (Sigma–Aldrich, St. Louis, MO, USA) and 5 μL of propidium iodide for 15 min at room temperature in the dark. Finally, the cells were analyzed by flow cytometry (Guava easy Cyte, MERCK, Rahway, NJ, USA) within 1 h. The experiments were repeated three times.

HuTu-80 cells [8] = experiment: Mitochondrial membrane potential, JC-10 flow cytometry; format: cell-based, human; details: for % cells with J-aggregate (red, high membrane potential) / % cells with J-monomer (green, decreased membrane potential): JC-10; for effect on mitochondrial membrane potential: more pronounced with increase of concentration up to IC50
Source text: Apoptosis induction by 3a, b, k, j and 4c through the mitochondrial pathway and HuTu-80 cell line was studied by flow cytometry using the fluorescent dye JC-10 from the Mitochondria Membrane Potential Kit. JC-10 accumulated in the mitochondrial matrix and formed aggregates (J-aggregate) with red fluorescence in normal cells with a high mitochondrial membrane potential. The membrane potential decreased in apoptotic cells. JC-10 started to diffuse out from the mitochondria and converts to the monomeric form (J-monomer) and emits green fluorescence. This is recorded with a flow cytometer. […] The process became more pronounced with an increase of 3a, b, 3k, j and 4c concentrations up to IC50 (Figure 5 and Figure 6).
Cells were harvested at 2000 rpm for 5 min and then washed twice with ice-cold PBS, followed by resuspension in JC-10 (10 µg/mL) and incubation at 37 °C for 10 min. After the cells were rinsed three times and suspended in PBS, the JC-10 fluorescence was observed by flow cytometry (Guava easy Cyte, MERCK, NJ, USA).

HuTu-80 cells [9] = experiment: Intracellular ROS production, CellROX Deep Red flow cytometry; format: cell-based, human; details: for CellROX Deep Red fluorescence intensity (ROS production): control 600; for ROS generation: compared to 3a and 3b and control (untreated cells)
Source text: Increasing the production of reactive oxygen species (ROS) by compounds characterizes the mitochondrial apoptotic pathway. Mitochondria are a potential source and target of ROS. ROS lead to disruption of mitochondrial functions and, as a consequence, to irreversible cell damage. In this regard, the effect of test compounds in HuTu-80 cells on ROS production, using flow cytometry analysis and CellROX® Deep Red flow cytometry kit was investigated. Data presented in Figure 7 show a significant increase in CellROX® Deep Red fluorescence intensity. This indicates an increase in ROS production in the presence of the tested compounds.
ROS generation was investigated using flow cytometry assay and CellROX® Deep Red flow cytometry kit. For this HuTu 80 cells were harvested at 2000 rpm for 5 min and then washed twice with ice-cold PBS, followed by resuspension in 0.1 mL of medium without FBS, to which was added 0.2 μL of Cell ROX® Deep Red and incubated at 37 °C for 30 min After three times washing the cells and suspending them in PBS, the production of ROS in the cells was immediately monitored using flow cytometer Guava easy Cyte, MERCK, NJ, USA).

[10] = system: PC3 (human prostate adenocarcinoma); experiment: MTT cytotoxicity, PC3; details: for IC50: Homo sapiens, read-out: IC50 PC3, MTT, mean ± SD, triplicate; for SI PC3: IC50 normal cells (WI38) / IC50 cancer cells, ns = no selectivity
human cancer cell lines = experiment: MTT cytotoxicity, summary statements over several cell lines; format: cell-based

Row | SMILES | IC50 [1] | SI HuTu 80 [1] | IC50 [2] | SI M-HeLa [2] | IC50 [3] | SI MCF-7 [3] | IC50 [4] | SI A549 [4] | IC50 [5] | SI T98G [5] | IC50 [6] | apoptosis induction (HuTu-80 cells [7]) | % cells with J-aggregate (red, high membrane potential) (HuTu-80 cells [8]; IC50, 48 h) | % cells with J-monomer (green, decreased membrane potential) (HuTu-80 cells [8]; IC50, 48 h) | % cells with J-aggregate (red, high membrane potential) (HuTu-80 cells [8]; IC50/2, 48 h) | % cells with J-monomer (green, decreased membrane potential) (HuTu-80 cells [8]; IC50/2, 48 h) | effect on mitochondrial membrane potential (HuTu-80 cells [8]) | CellROX Deep Red fluorescence intensity (ROS production) (HuTu-80 cells [9]; IC50, 48 h) | IC50 [10] | SI PC3 [10] | also measured
1 | OC(CCl)C[P+](c1ccccc1)(c1ccccc1)c1ccccc1 (stereo not shown) [3a, (3-Chloro-2-hydroxypropyl)triphenylphosphonium trifluoromethanesulfonate] | 10100 ± 800 nM | 4 | 66.7 ± 5.5 µM | ns | 56.1 ± 4.5 µM | ns | 64.4 ± 4.9 µM | ns | 64.3 ± 5.3 µM | ns | 37.5 ± 3.1 µM | actively induce apoptosis | 39.4% | 60.6% | 40.7% | 59.2% | decrease the mitochondrial membrane potential | 1500 | 45 ± 3.6 µM | ns | CellROX Deep Red fluorescence intensity (ROS production) (HuTu-80 cells [9]; IC50/2, 48 h): 1000
2 | OC(CBr)C[P+](c1ccccc1)(c1ccccc1)c1ccccc1 (stereo not shown) [3b, (3-Bromo-2-hydroxypropyl)triphenylphosphonium trifluoromethanesulfonate] | 3000 ± 100 nM | 5 | 30.1 ± 2.4 µM | ns | 34 ± 2.6 µM | ns | > 100 µM | ns | 56 ± 4.5 µM | ns | 13.8 ± 1.1 µM | actively induce apoptosis | 48.1% | 51.9% | 54.5% | 45.5% | decrease the mitochondrial membrane potential | 1580 | 23.3 ± 1.9 µM | ns | CellROX Deep Red fluorescence intensity (ROS production) (HuTu-80 cells [9]; IC50/2, 48 h): 1200
3 | CCCCCCCCCCOCC(O)C[P+](c1ccccc1)(c1ccccc1)c1ccccc1 (stereo not shown) [3j, (3-(Decyloxy)-2-hydroxypropyl)triphenylphosphonium trifluoromethanesulfonate] | 500 ± 30 nM | 6.2 | 1.1 ± 0.09 µM | 3 | 2.9 ± 0.2 µM | 1.1 | 3.7 ± 0.3 µM | ns | 1.7 ± 0.1 µM | 2 | 3.1 ± 0.2 µM | actively induce apoptosis | 50.1% | 48.2% | 89.6% | 10.4% | decrease the mitochondrial membrane potential | 3700 | 0.6 ± 0.05 µM | 5.2 | anti-cancer activity against the HuTu 80 cell line relative to doxorubicin ([1]; words): comparable to doxorubicin activity; CellROX Deep Red fluorescence intensity (ROS production) (HuTu-80 cells [9]; IC50/2, 48 h): 2500; ROS generation (HuTu-80 cells [9]): most active to generate ROS; IC50 (human cancer cell lines; Homo sapiens, HuTu80, lines other than HuTu 80 and PC3, read-out: IC50 concentration values against other human cancer lines): 1100 to 3700 nM; cytotoxic effect against the PC3 line relative to doxorubicin ([10]; words): two times higher than doxorubicin
4 | CCCCCCCCCCCCCCCC(=O)OCC(O)C[P+](c1ccccc1)(c1ccccc1)c1ccccc1 (stereo not shown) [3k, (2-Hydroxy-3-palmitoyloxy-propyl)triphenylphosphonium trifluoromethanesulfonate] | 3500 ± 300 nM | 5 | 40.3 ± 3.5 µM | ns | 30.5 ± 2.5 µM | ns | 54.7 ± 4.4 µM | ns | 55.8 ± 4.7 µM | ns | 16.2 ± 1.3 µM | actively induce apoptosis | 26.2% | 73.8% | 35% | 65% | decrease the mitochondrial membrane potential | 3800 | 25 ± 2 µM | ns | CellROX Deep Red fluorescence intensity (ROS production) (HuTu-80 cells [9]; IC50/2, 48 h): 2000; ROS generation (HuTu-80 cells [9]): most active to generate ROS
5 | COc1cccc2c1C(=O)c1c(O)c3c(c(O)c1C2=O)C[C@@](O)(C(=O)CO)C[C@@H]3O[C@H]1C[C@H](N)[C@H](O)[C@H](C)O1 [Dox, doxorubicin, reference compound] | 200 ± 10 nM | 4 | 2.1 ± 0.1 µM | ns | 0.4 ± 0.03 µM | 2 | 0.7 ± 0.5 µM | 1.1 | 2 ± 0.1 µM | ns | 0.8 ± 0.07 µM | – | – | – | – | – | – | – | 1.4 ± 0.1 µM | ns | selectivity relative to the leading compounds (human cancer cell lines): significantly inferior to the leading compounds in selectivity

Reference: PMC8588467, “Rational Design 2-Hydroxypropylphosphonium Salts as Cancer Cell Mitochondria-Targeted Vectors: Synthesis, Structure, and Biological Properties” (Molecules, 2021)
